From patent publication US9296681B2, “Cycloalkylmethylamines” (Reviva Pharmaceuticals, Inc., priority 2006, dated 2016)

Columns and labels:
[1] = target: human recombinant dopamine transporter (DAT) (Homo sapiens (Human), UniProt Q01959); assay: radioligand binding assay, dopamine transporter; conditions: 11 test concentrations, duplicates
Description: (§1) The monoamine transporters inhibitory activities of selected compounds cycloalkylmethylamine derivatives comprising Formula (I) are reported herein. The compounds were evaluated using well established radioligand binding assays protocols (Galli, A. et al., J. Exp. Biol. 1995, 198, 2197-2212; Giros, B. et al., Trends Pharmcol. Sci. 1993, 14, 43-49; Gu, H. et al., J. Biol. Chem. 1994, 269(10), 7124-7130; Shearman, L. P. et al, Am. J. Physiol., 1998, 275 (6 Pt 1), C1621-1629; Wolf, W. A. et al., J. Biol. Chem. 1992, 267(29), 20820-20825). The human recombinant transporter proteins dopamine (DAT), norepinephrine (NET) and serotonin (SERT) were selected for the in vitro assays. The radioligand binding assays were carried out at 11 different test concentrations […] to 1 μM.
(§2) The assays were carried out in duplicates and the quantitative data are reported as Ki in the TABLE 1.

[2] = target: human recombinant norepinephrine transporter (NET) (Homo sapiens (Human), UniProt P23975); assay: radioligand binding assay, norepinephrine transporter; conditions: 11 test concentrations, duplicates
human recombinant norepinephrine transporter (NET), sequence (P23975 whole entry): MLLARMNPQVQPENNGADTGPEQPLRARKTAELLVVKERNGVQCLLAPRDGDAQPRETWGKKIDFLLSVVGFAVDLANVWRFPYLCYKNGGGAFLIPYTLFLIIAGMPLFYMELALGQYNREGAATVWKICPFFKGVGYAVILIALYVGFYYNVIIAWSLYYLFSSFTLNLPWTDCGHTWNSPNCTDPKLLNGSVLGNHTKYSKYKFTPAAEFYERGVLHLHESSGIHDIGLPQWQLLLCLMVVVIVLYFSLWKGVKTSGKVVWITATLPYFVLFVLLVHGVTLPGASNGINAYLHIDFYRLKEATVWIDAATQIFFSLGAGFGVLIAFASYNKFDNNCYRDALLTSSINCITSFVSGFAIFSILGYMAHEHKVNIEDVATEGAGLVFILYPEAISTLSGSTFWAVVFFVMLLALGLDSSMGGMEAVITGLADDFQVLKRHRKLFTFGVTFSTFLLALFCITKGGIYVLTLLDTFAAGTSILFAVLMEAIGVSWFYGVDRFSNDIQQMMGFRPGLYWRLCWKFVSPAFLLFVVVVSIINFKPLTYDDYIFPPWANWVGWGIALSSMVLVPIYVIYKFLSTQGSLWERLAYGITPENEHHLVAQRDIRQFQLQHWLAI
Description: as §1, §2

[3] = target: human recombinant serotonin transporter (SERT) (Homo sapiens (Human), UniProt P31645); assay: radioligand binding assay, serotonin transporter; conditions: 11 test concentrations, duplicates
Description: as §1, §2

[4] = active metabolites of sibutramine; cited from earlier work

human recombinant dopamine transporter (DAT), sequence (Q01959 whole entry): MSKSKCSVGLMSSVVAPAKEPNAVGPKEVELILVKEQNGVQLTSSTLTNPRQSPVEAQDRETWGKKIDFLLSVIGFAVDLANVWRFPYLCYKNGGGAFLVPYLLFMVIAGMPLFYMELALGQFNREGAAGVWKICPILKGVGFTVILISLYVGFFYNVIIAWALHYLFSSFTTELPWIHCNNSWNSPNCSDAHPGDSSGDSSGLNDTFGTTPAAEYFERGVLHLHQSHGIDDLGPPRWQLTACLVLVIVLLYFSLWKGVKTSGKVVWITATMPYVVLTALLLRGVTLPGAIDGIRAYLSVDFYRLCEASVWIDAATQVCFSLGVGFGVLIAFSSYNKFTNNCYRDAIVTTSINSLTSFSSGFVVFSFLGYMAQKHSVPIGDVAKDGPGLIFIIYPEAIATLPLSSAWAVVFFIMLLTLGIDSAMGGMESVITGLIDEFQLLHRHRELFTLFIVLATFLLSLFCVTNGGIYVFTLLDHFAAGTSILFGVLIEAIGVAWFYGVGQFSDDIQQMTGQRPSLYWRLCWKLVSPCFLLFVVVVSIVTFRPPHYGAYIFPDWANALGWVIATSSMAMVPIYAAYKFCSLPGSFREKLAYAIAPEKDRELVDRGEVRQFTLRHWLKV

Structure (SMILES)	Ki [1] [nM]	Ki [2] [nM]	Ki [3] [nM]	elimination half-life [4] [h]
CC(C)C[C@@H](NCCCC(N)=O)C1(c2ccc(Cl)c(Cl)c2)CCC1 (single isomer, unassigned; isomer-1) [33a-(R)-Isomer]	0.91	30.3	2.3	
CC(C)C[C@H](NCCCC(N)=O)C1(c2ccc(Cl)c(Cl)c2)CCC1 (single isomer, unassigned; isomer-2) [33a-(S)-Isomer]	126	3420	300	
CC(C)CC(N)C1(c2ccc(Cl)cc2)CCC1 (centres unmarked) [Compound M2]				16
CCOc1ccc(C2(C(CC(C)C)NCCCC(N)=O)CCC2)cc1 (racemic) [Compound 33b-Racemic]	472	> 10000	5.49	
CNC(CC(C)C)C1(c2ccc(Cl)cc2)CCC1 (centres unmarked) [Compound M1]				14
CC(C)CC(NCCCC(N)=O)C1(c2ccc(Cl)c(Cl)c2)CCC1 (racemic) [Compound 33a-Racemic]	1.5	50.1	8.1	
